Test results taken from patent US8163793B2, “Proline derivatives” (Hoffman-La Roche Inc., priority 2009, dated 2012).
Where a name gives a salt, the structure may show the parent alone.

How the values were obtained:
Cat L = Cat L (UniProt P07711); test: Cathepsin enzyme inhibition assay (fluorogenic peptide substrate Z-Val-Val-Arg-AMC), Cathepsin L; assay type: biochemical, human and mouse; conditions: enzyme 1 nM, substrate 20 μM, pH 6.5; read-out: CatL IC50
Outline: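 Cathepsin L at 1 nM was mixed with compound, then started with 20 μM Z-Val-Val-Arg-AMC in pH 6.5 potassium phosphate with EDTA, Triton X-100 and 5 mM DTT. AMC fluorescence (ex 360/em 465 nm) was followed over 20 min. IC50 is given in μM.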

Cathepsin S = Cathepsin S (UniProt P25774); test: Cathepsin enzyme inhibition assay (fluorogenic peptide substrate Z-Val-Val-Arg-AMC), Cathepsin S; assay type: biochemical, human and mouse; conditions: enzyme 1 nM, substrate 20 μM, pH 6.5; read-out: CatS IC50
Outline: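 Human or mouse cathepsin S (1 nM) was run in 100 mM potassium phosphate pH 6.5 with 5 mM EDTA, 0.001% Triton X-100 and 5 mM DTT. The rise in AMC fluorescence from cleavage was measured, and IC50 values were calculated by standard methods and expressed in μM.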

C[C@H](Oc1ccc(S(=O)(=O)[C@@H]2C[C@H](C(=O)NC3(C#N)CC3)N(C(=O)C3CC3)C2)c(Cl)c1)C(F)(F)F [Example 198, (2R,4R)-4-[2-Chloro-4-((S)-2,2,2-trifluoro-1-methyl-ethoxy)-benzenesulfonyl]-1-cyclopropanecarbonyl-pyrrolidine-2-carboxylic acid (1-cyano-cyclopropyl)-amide]
IC50 (Cat L): ≥ 25000 nM | IC50 (Cathepsin S): 27 nM

CC(C#N)(NC(=O)[C@@H]1C[C@@H](S(=O)(=O)c2ccccc2Cl)CN1)c1ccccc1 (stereo partly drawn) [Example 48, (2S,4R)-4-(2-Chloro-benzenesulfonyl)-pyrrolidine-2-carboxylic acid (cyano-methyl-phenyl-methyl)-amide Hydrochloride]
IC50 (Cat L): ≥ 25000 nM | IC50 (Cathepsin S): 235 nM

N#CC1(NC(=O)[C@@H]2C[C@@H](S(=O)(=O)c3ccccc3Cl)CN2C(=O)C2(CO)CC2)CC1 [Example 452, (2S,4R)-4-(2-Chloro-benzenesulfonyl)-1-(1-hydroxymethyl-cyclopropanecarbonyl)-pyrrolidine-2-carboxylic acid (1-cyano-cyclopropyl)-amide]
IC50 (Cat L): 7930 nM | IC50 (Cathepsin S): 1.17 nM

CC(C)(C)OC(=O)N[C@@H](C(=O)N1C[C@H](S(=O)(=O)c2ccccc2Cl)C[C@H]1C(=O)NC1(C#N)CC1)c1ccc(Cl)cc1 [Example 412, [(R)-2-[(2S,4R)-4-(2-Chloro-benzenesulfonyl)-2-(1-cyano-cyclopropylcarbamoyl)-pyrrolidin-1-yl]-1-(4-chloro-phenyl)-2-oxo-ethyl]-carbamic Acid Tert-butyl ester]
IC50 (Cat L): 785 nM | IC50 (Cathepsin S): 2.75 nM

CN(C)c1ccc(S(=O)(=O)[C@@H]2C[C@@H](C(=O)NC3(C#N)CC3)N(C(=O)C3(C(F)(F)F)CC3)C2)c(Cl)c1 [Example 292, (2S,4R)-4-(2-Chloro-4-dimethylamino-benzenesulfonyl)-1-(1-trifluoromethyl-cyclopropanecarbonyl)-pyrrolidine-2-carboxylic acid (1-cyano-cyclopropyl)-amide]
IC50 (Cat L): 4130 nM | IC50 (Cathepsin S): 0.157 nM

Cc1cc(N2C[C@H](S(=O)(=O)c3ccccc3C(F)(F)F)C[C@H]2C(=O)NC2(C#N)CC2)n(-c2cccnn2)n1 [Example 317, (2S,4R)-1-(5-Methyl-2-pyridazin-3-yl-2H-pyrazol-3-yl)-4-(2-trifluoromethyl-benzenesulfonyl)-pyrrolidine-2-carboxylic acid (1-cyano-cyclopropyl)-amide]
IC50 (Cat L): ≥ 25000 nM | IC50 (Cathepsin S): 22.8 nM

Cc1cc(N2C[C@H](S(=O)(=O)c3ccccc3C(F)(F)F)C[C@H]2C(=O)NC2(C#N)CC2)n(-c2ccnc(Cl)c2)n1 [Example 193, (2S,4R)-1-[2-(2-Chloro-pyridin-4-yl)-5-methyl-2H-pyrazol-3-yl]-4-(2-trifluoromethyl-benzenesulfonyl)-pyrrolidine-2-carboxylic acid (1-cyano-cyclopropyl)-amide]
IC50 (Cat L): 28500 nM | IC50 (Cathepsin S): 0.2 nM

N#CC1(NC(=O)[C@@H]2C[C@@H](S(=O)(=O)c3ccc(-n4ccnc4-c4ccccc4)cc3C(F)(F)F)CN2)CC1 [Example 25, (2S,4R)-4-[4-(2-Phenyl-imidazol-1-yl)-2-trifluoromethyl-benzenesulfonyl]-pyrrolidine-2-carboxylic acid (1-cyano-cyclopropyl)-amide hydrochloride]
IC50 (Cat L): ≥ 25000 nM | IC50 (Cathepsin S): 2.3 nM

CC(C)(C)OC(=O)N1C[C@H](S(=O)(=O)c2ccccc2Cl)C[C@H]1C(=O)NC(C)(C#N)c1ccccc1 (stereo partly drawn) [Example 37, (2S,4R)-4-(2-Chloro-benzenesulfonyl)-2-[(cyano-methyl-phenyl-methyl)-carbamoyl]-pyrrolidine-1-carboxylic acid tert-butyl ester]
IC50 (Cat L): ≥ 25000 nM | IC50 (Cathepsin S): 1030 nM

N#CC1(NC(=O)[C@@H]2C[C@@H](S(=O)(=O)c3ccc(OCC(F)(F)F)cc3C(F)(F)F)CN2C(=O)C2(C(F)(F)F)CC2)CC1 [Example 237, (2S,4R)-4-[4-(2,2,2-Trifluoro-ethoxy)-2-trifluoromethyl-benzenesulfonyl]-1-(1-trifluoromethyl-cyclopropanecarbonyl)-pyrrolidine-2-carboxylic acid (1-cyano-cyclopropyl)-amide]
IC50 (Cat L): ≥ 25000 nM | IC50 (Cathepsin S): 0.168 nM

CC(C)(C)OC(=O)N1C[C@H](S(=O)(=O)c2ccc(F)cc2F)C[C@H]1C(=O)NC1(C#N)CC1 [Example 6, (2S,4R)-2-(1-Cyano-cyclopropylcarbamoyl)-4-(2,4-difluoro-benzenesulfonyl)-pyrrolidine-1-carboxylic acid tert-butyl ester]
IC50 (Cat L): ≥ 25000 nM | IC50 (Cathepsin S): 38.5 nM

CC(C)CC(=O)N1C[C@H](S(=O)(=O)c2ccc(OCC(F)(F)F)cc2Cl)C[C@H]1C(=O)NC1(C#N)CC1 [Example 180, (2S,4R)-4-[2-Chloro-4-(2,2,2-trifluoro-ethoxy)-benzenesulfonyl]-1-(3-methyl-butyryl)-pyrrolidine-2-carboxylic acid (1-cyano-cyclopropyl)-amide]
IC50 (Cat L): 21400 nM | IC50 (Cathepsin S): 0.47 nM

N#Cc1cccc(N2CC(S(=O)(=O)c3ccccc3C(F)(F)F)CC2C(=O)NC2(C#N)CC2)c1 (stereo not shown) [Example 358, 1-(3-Cyano-phenyl)-4-(2-trifluoromethyl-benzenesulfonyl)-pyrrolidine-2-carboxylic acid (1-cyano-cyclopropyl)-amide]
IC50 (Cat L): ≥ 25000 nM | IC50 (Cathepsin S): 0.5 nM

N#CC1(NC(=O)[C@H]2C[C@@H](S(=O)(=O)c3ccc(Cl)cc3Cl)CN2c2ncccc2C(F)(F)F)CC1 [Example 189, (2R,4R)-4-(2,4-Dichloro-benzenesulfonyl)-1-(3-trifluoromethyl-pyridin-2-yl)-pyrrolidine-2-carboxylic acid (1-cyano-cyclopropyl)-amide]
IC50 (Cat L): ≥ 25000 nM | IC50 (Cathepsin S): 665 nM

N#CCNC(=O)[C@@H]1C[C@@H](S(=O)(=O)c2ccccc2)CN1CC1CCCCC1 [Example 55, (2S,4R)-4-Benzenesulfonyl-1-cyclohexylmethyl-pyrrolidine-2-carboxylic acid cyanomethyl-amide]
IC50 (Cat L): ≥ 25000 nM | IC50 (Cathepsin S): 14.8 nM

CC(C(=O)N1C[C@H](S(=O)(=O)c2ccccc2Cl)C[C@H]1C(=O)NC1(C#N)CC1)c1ccc(Cl)cc1 (stereo partly drawn) [Example 430, (2S,4R)-1-(2-(4-chlorophenyl)propanoyl)-4-(2-chlorophenylsulfonyl)-N-(1-cyanocyclopropyl)pyrrolidine-2-carboxamide]
IC50 (Cat L): 2590 nM | IC50 (Cathepsin S): 0.82 nM

N#CC1(NC(=O)[C@@H]2C[C@@H](S(=O)(=O)c3ccc(OCC(F)(F)F)cc3Cl)CN2C(=O)C2(c3ccc(Br)cc3)OCCO2)CC1 [Example 346, (2S,4R)-1-[2-(4-Bromo-phenyl)-[1,3]dioxolane-2-carbonyl]-4-[2-chloro-4-(2,2,2-trifluoro-ethoxy)-benzenesulfonyl]-pyrrolidine-2-carboxylic acid (1-cyano-cyclopropyl)-amide]
IC50 (Cat L): 28.5 nM | IC50 (Cathepsin S): 0.101 nM

N#CC1(NC(=O)[C@@H]2C[C@@H](S(=O)(=O)c3ccc(OCC(F)(F)F)cc3Cl)CN2C(=O)C2(c3ccc(Cl)cc3)CCCCC2)CC1 [Example 314, (2S,4R)-1-[1-(4-Chloro-phenyl)-cyclohexanecarbonyl]-4-[2-chloro-4-(2,2,2-trifluoro-ethoxy)-benzenesulfonyl]-pyrrolidine-2-carboxylic acid (1-cyano-cyclopropyl)-amide]
IC50 (Cat L): 1680 nM | IC50 (Cathepsin S): 0.37 nM

C[C@H](Oc1ccc(S(=O)(=O)[C@@H]2C[C@@H](C(=O)NC3(C#N)CC3)N(C(=O)C3(c4ccc(Cl)nc4)CC3)C2)c(Cl)c1)C(F)(F)F [Example 381, (2S,4R)-1-[1-(6-Chloro-pyridin-3-yl)-cyclopropanecarbonyl]-4-[2-chloro-4-((S)-2,2,2-trifluoro-1-methyl-ethoxy)-benzenesulfonyl]-pyrrolidine-2-carboxylic acid (1-cyano-cyclopropyl)-amide]
IC50 (Cat L): 102 nM | IC50 (Cathepsin S): 0.295 nM

N#CC1(NC(=O)[C@@H]2C[C@@H](S(=O)(=O)c3ccc(OCC(F)(F)F)cc3Cl)CN2C(=O)C2(c3cccc4ccccc34)OCCO2)CC1 [Example 390, (2S,4R)-4-[2-Chloro-4-(2,2,2-trifluoro-ethoxy)-benzenesulfonyl]-1-(2-naphthalen-1-yl-[1,3]dioxolane-2-carbonyl)-pyrrolidine-2-carboxylic acid (1-cyano-cyclopropyl)-amide]
IC50 (Cat L): 120 nM | IC50 (Cathepsin S): 0.83 nM

N#CC1(NC(=O)[C@@H]2C[C@@H](S(=O)(=O)c3ccc(OCC(F)(F)F)cc3C(F)(F)F)CN2C(=O)C2(CO)CC2)CC1 [Example 451, (2S,4R)-1-(1-Hydroxymethyl-cyclopropanecarbonyl)-4-[4-(2,2,2-trifluoro-ethoxy)-2-trifluoromethyl-benzenesulfonyl]-pyrrolidine-2-carboxylic acid (1-cyano-cyclopropyl)-amide]
IC50 (Cat L): 6380 nM | IC50 (Cathepsin S): 0.758 nM

N#CC1(NC(=O)C2CC(S(=O)(=O)c3ccccc3C(F)(F)F)CN2c2cccc(OC(F)(F)F)c2)CC1 (stereo not shown) [Example 367, 1-(3-Trifluoromethoxy-phenyl)-4-(2-trifluoromethyl-benzenesulfonyl)-pyrrolidine-2-carboxylic acid (1-cyano-cyclopropyl)-amide]
IC50 (Cat L): ≥ 25000 nM | IC50 (Cathepsin S): 1.57 nM

CC1(C(=O)N2C[C@H](S(=O)(=O)c3ccc(C4CC4)cc3C(F)(F)F)C[C@H]2C(=O)NC2(C#N)CC2)CC1 [Example 271, (2S,4R)-4-(4-Cyclopropyl-2-trifluoromethyl-benzenesulfonyl)-1-(1-methyl-cyclopropanecarbonyl)-pyrrolidine-2-carboxylic acid (1-cyano-cyclopropyl)-amide]
IC50 (Cat L): 85600 nM | IC50 (Cathepsin S): 1.75 nM
